Assay results: a melting point compilation (Tetko et al.; mined from patent text by program, amines drawn as free bases though some values may be those of a salt)

For `NS(=O)(=O)c1ccc(NC(=O)CCl)c(Cl)c1`, the melting point was 162 to 164 °C.
For `CCCCn1c(=O)[nH]c(C(F)(F)F)c(Cl)c1=O`, the melting point was 138 to 139 °C.
`C#CCOC(=O)[C@H](Cc1c[nH]cn1)NC(=O)C(Cc1cccc2ccccc12)Cc1cccc2ccccc12` showed a melting point of 187 to 189 °C.
Compound `Cn1nnnc1SCCSc1ccccn1` has a melting point of 77 to 79.5 °C.
Compound `CCN(CC)CCOc1ccc(NC(=O)C#Cc2cccnc2)cc1Cl` has a melting point of 118 to 120 °C.
Compound `CCOC(=O)c1cn(C2CSC2)c2nc(Cl)c(F)cc2c1=O` has a melting point of 157 to 161 °C.
Work on `CC(C)C[C@H](NC(=O)N1CCCCCC1)C(=O)OCc1ccccc1` yielded a melting point of 79 to 82 °C.
`CCC(CC)C(=O)Nc1cc(-c2ccccc2)nc(-c2ccccc2)n1` showed a melting point of 102 °C.
In the case of `CN(Cc1ccc(NC(=O)C2=Cc3cc(-c4ccc(N5CCCCC5)cc4)ccc3CCC2)cc1)C1CCOCC1`, the melting point was 170 to 171 °C.
Compound `CC(=O)Nc1cccc2c1CCN(C(C)=O)C2` has a melting point of 154 to 156 °C.
`CC(=O)OCc1ccccc1/C(=N\O)C(N)=O` showed a melting point of 112 to 114 °C.
For `O=C(Nc1ccc(Cl)cc1)OCCOc1ccc(Oc2ccccc2)cc1Cl`, the melting point was 155 to 156 °C.
`Cn1ccnc1C(O)(c1ccc(Cl)cc1)c1ccc(Cl)cc1` showed a melting point of 190 to 191 °C.
`CC(c1ccsc1)N(O)C(N)=O` (centres undefined) gave a melting point of 138 to 140 °C.
In the case of `COc1ccc(C(=O)Nc2ccccc2NC(=O)c2ccc(OC)c(OC)c2)cc1OC`, the melting point was 191 to 192 °C.
Work on `CCOP(=O)(/C=C/c1nc(-c2ccccc2)oc1COc1ccc(OCc2nc(-c3ccccc3)oc2C)cc1)OCC` yielded a melting point of 124 to 125 °C.
In the case of `COc1ccc(CCNC(=O)C23CC4CC(CC(C4)C2)C3)cc1OC`, the melting point was 132 to 133 °C.
With `CCOC(=O)C(C)=Cc1ccc([N+](=O)[O-])cc1` the melting point was 75 °C.
`COc1cc2ncnc(N3CCN(C(=O)NCc4cccnc4)CC3)c2cc1OC` gave a melting point of 188 to 189 °C.
Work on `CN(SC(C)(C)C(=O)c1ccccc1)C(=O)ON=C1SC(C)(C)C(=O)N1C` yielded a melting point of 98 to 100 °C.
`CCCCCCCCCCC1CCCC1C(=O)Nc1c(OC)ccc2ncccc12` (centres undefined) gave a melting point of 57 to 58 °C.
For `COC(=O)COc1ccc(C(=O)CN2CCN(c3ccncc3)CC2=O)cc1`, the melting point was 164 to 165 °C.
With `CC(C)OC(=O)CCc1ccc(-n2ccn(-c3ccc(C(=N)N)cc3)c2=O)cc1` the melting point was > 250 °C.
Compound `COc1ccc2c(c1)NC(C)(C)C=C2C` has a melting point of 67 to 69 °C.
`CC(C)(C)C1(O)CCN(CC2c3ccccc3CCc3ccccc32)CC1` showed a melting point of 96 to 98.5 °C.
Work on `COc1cc(OCCCCl)ccc1C(C)=O` yielded a melting point of 47 to 49 °C.
Compound `Cc1ccc2c(c1)c(N1CCN(C(=O)c3cccs3)CC1)c(C#N)c(=O)n2Cc1ccc(F)cc1` has a melting point of 274 °C.
Compound `CNC1CCN(c2nc3ccccc3n2Cc2ccc(C#N)cc2)CC1` has a melting point of 133 °C.
With `COc1ccc(C2=NN(C(=O)c3cccc(NC(=O)c4ccc(NC(=O)c5ccc([N+](=O)[O-])cc5)cc4)c3)CCC2)cc1OCCN(C)C` the melting point was 274 °C.
Work on `CC(=O)OC1CSC(Oc2cnc(-c3ccncc3)c(Cl)c2)C(OC(C)=O)C1OC(C)=O` (centres undefined) yielded a melting point of 153 °C.
Work on `O=C1c2ccccc2-c2c1c1cc3c(cc1c(=O)n2CCCNS(=O)(=O)c1ccccc1)OCO3` yielded a melting point of 225 to 226 °C.
In the case of `C[C@@H](n1cnc2cc(N3CCN(c4ccc(Cl)cc4)CC3)c(F)cc2c1=O)[C@](O)(Cn1cncn1)c1ccc(F)cc1F`, the melting point was 130 to 133 °C.
In the case of `CCCn1c(=O)c2c(NC)n[nH]c2n(Cc2ccncc2)c1=O`, the melting point was > 300 °C.
`O=C1Nc2cc([N+](=O)[O-])ccc2OC1CCO` (centres undefined) gave a melting point of 174 to 175 °C.
For `Cc1ccccc1-c1coc2cc(O)cc(Cl)c2c1=O`, the melting point was > 290 °C.
For `CS(=O)(=O)c1ccc(-c2c(C(=O)O)c3cccccc-3c2-c2ccccc2)cc1`, the melting point was 168 to 169 °C.
Work on `CC(C)(CC(O)(CO)C(F)(F)F)c1cc(Br)cc2c1OCC2` (centres undefined) yielded a melting point of 124 to 128 °C.
For `COC(=O)C1C(C)=NC(N2CCCCC2)=C(C(=O)OC(C)C)C1c1cccc([N+](=O)[O-])c1` (centres undefined), the melting point was 112 °C.
Compound `O=C1Nc2c(ccc3ccccc23)OC1c1ccc(Cl)cc1` (centres undefined) has a melting point of 230 to 232 °C.
